Reference: ChEMBL document CHEMBL1201862, “PubChem BioAssay data set” (2004)
Calls of active or inactive are those of the source. Cut-off read from the data, not from the text of the source: actives have a measured IC50 and inactives only a lower limit.

Target: Envelope glycoprotein gp160 (Human immunodeficiency virus 1, UniProt Q6QLK5)
Assay: inhibitors of HIV fusion peptide binding, primary screen, biochemical, uHTS, fluorescence dequenching (AID 1986)

Sequence of Envelope glycoprotein gp160 (Q6QLK5 whole entry, the tested form may be a part): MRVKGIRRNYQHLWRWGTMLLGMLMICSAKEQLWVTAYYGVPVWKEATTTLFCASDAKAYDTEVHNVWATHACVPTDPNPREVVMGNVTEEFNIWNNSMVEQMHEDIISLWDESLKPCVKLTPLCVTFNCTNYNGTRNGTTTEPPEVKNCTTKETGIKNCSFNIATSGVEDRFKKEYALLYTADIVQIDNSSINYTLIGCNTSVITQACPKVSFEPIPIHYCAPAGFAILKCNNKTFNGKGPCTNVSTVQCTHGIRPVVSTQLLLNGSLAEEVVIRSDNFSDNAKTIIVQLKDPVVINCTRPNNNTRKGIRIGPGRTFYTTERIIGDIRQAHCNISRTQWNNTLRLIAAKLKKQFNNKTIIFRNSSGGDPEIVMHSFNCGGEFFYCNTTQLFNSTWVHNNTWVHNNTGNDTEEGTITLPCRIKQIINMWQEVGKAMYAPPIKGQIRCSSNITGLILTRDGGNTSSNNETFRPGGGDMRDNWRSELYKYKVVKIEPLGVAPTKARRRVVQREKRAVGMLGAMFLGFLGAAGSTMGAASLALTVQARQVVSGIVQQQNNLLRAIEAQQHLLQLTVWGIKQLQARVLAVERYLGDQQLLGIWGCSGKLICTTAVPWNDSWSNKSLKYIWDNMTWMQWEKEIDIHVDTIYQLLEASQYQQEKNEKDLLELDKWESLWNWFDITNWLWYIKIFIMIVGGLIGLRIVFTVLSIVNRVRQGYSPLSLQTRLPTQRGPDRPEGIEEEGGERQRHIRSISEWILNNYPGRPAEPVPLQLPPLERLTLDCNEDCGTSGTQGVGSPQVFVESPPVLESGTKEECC

**Q.** Cc1ccc(NC(S)=NNc2ccc([N+](=O)[O-])cc2S(=O)(=O)Nc2ccccc2C(=O)O)cc1C was tested. Which IC50 did it give?
**A.** 7.4 µM (active)

**Q.** For CC(C)CS(=O)(=O)C1=NN2C(=N)/C(=C\c3ccc(OC(=O)c4ccco4)cc3)C(=O)N=C2S1, which IC50 is on record?
**A.** 12.8 µM (active)

**Q.** For N#C/C(=C\c1ccc(O)c([N+](=O)[O-])c1)c1nc2ccccc2s1, which IC50 is on record?
**A.** 25.2 µM (active)

**Q.** For O=C(O)/C(CC(=O)c1ccc(Cl)cc1)=N/Nc1ccc([N+](=O)[O-])cc1[N+](=O)[O-], which IC50 is on record?
**A.** 20.8 µM (active)
